Values joined by “and” are separate entries in the source; they are usually repeats but may differ in a detail not shown here. Identical values can stand only once. Like-named read-outs stand apart in the source and are kept apart here.
How the values were obtained:
[1] = tested on: dinitrofluorobenzene (DNFB)-challenged mouse; test: DNFB mouse model; type: in vivo; conditions: 0.3% in ethanolic formulation, twice daily
Text: DNFB is a small chemical hapten that induces a delayed-type hypersensitivity reaction with some similarity to human atopic dermatitis. […] This may indicate reduced exposure to the compound in the second study, although additional data would be required to understand whether this discrepancy results from different dosing strategies (q.d. vs b.i.d.), limitations of cream formulation 1, or another reason.
Healthy female CD1 mice (Crl:CD1(ICR)) were shaved on the abdomen and the nape of the neck under a 3 to 5% isoflurane anesthesia.
After body weight measurement, animals were allocated to study groups, according to the treatment table below. The study was divided in two arms, separated by 1 week, in order to accommodate for the in life monitoring of scratching monitoring. Half of the animals from each group (6 mice) were allocated in arm 1 and arm 2 respectively.
For each topical treatment, 100 mg of cream or 100 μL of liquid formulation were applied on the mouse nape of the neck skin using a solvent pipette. When creams were used, they were spread with a finger and allowed to penetrate the skin by massage until complete absorption. […]
Mice were culled on Day 17 under a 3 to 5% isoflurane anesthesia, 4 hours after the last topical treatment, and 48 hours after the last DNFB or acetone/olive oil challenge. […] Epidermal (FIG. 6C1) and dermal thickness (FIG. 6C2) were measured.

IL17A mRNA = test: sRICA ex vivo human skin explant, IL17A expression; type: cell-based; conditions: 10 μM, Th17 polarizing conditions
Text: A liquid-air interface skin explant culture with the in situ activation of immunocompetent cells, termed sRICA for skin-Resident Immune Cell Activation model was previously reported (Smith et al., (2016) PLoS One, 11(2)). In this assay, specific cytokine profiles of inflammatory skin diseases can be induced, including the Th17-type cytokines, IL17A, IL17F and IL22. Reduction of biomarkers in this assay indicates biological activity of the test compound.
Ex vivo human skin obtained from abdominoplasty surgery was processed to remove fat and dermatomed the tissue to ˜750 microns. Dermatomed skin was then cleaned in two serial rinses of 5-10 minutes each in room temperature PBS containing an antibiotic/antimycotic solution.
Skin was treated as asceptic from this point on; all further manipulations were performed in a class II biosafety cabinet. […]
The harvested skin tissue were stored in RNAlater until use. […] RNA was diluted to a concentration of 23.6 ng/ul (total of 100 ng RNA), and was used as template in a 10 uL PCR volume using Applied Biosciences RNA-to-CT 1 Step kit (AB Catalog # 4392938) and the specific TaqMan probes foreach gene to be quantified. […]
RNA levels of gene of interest's Relative Expression was calculated using the Delta Delta CT formula.
RNA was isolated from the tissue harvested at 24 hr and 48 hr post stimulation and gene expression was assessed by quantitative PCR. […]

[2] = oxygen radical absorbance capacity (ORAC) test; type: biochemical; conditions: Trolox Equivalent Values
[3] = metabolic stability in hepatocytes, dog; type: in vitro ADME
[4] = plasma protein binding by Rapid Equilibrium Dialysis, rat; type: in vitro ADME; conditions: rat, plasma
Text: (§1) The blood-to-plasma ratios were similar across species (1.22-1.36, Table 9).

Rat Plasma Proteins = test: as above; type: in vitro ADME
Text: as §1

[5] = metabolic stability in liver microsomes, rabbit; type: in vitro ADME

With `CC(C)c1c(O)cc(-c2cc3ccccc3cn2)cc1O` the “reduction in dermal thickness” value [1] was 34%, the “reduction in epidermal thickness” value [1] was 20% and the “inhibition of IL17A message expression” value (IL17A mRNA) was ~45%. For the same molecule, the Hydroxyl-radical [2] was 759 TEV, the Peroxyl radical-hydro [2] was 3267 TEV and the Peroxyl radical-lipo [2] was 1397 TEV. The Peroxynitrite [2] was 100 TEV, the Singlet oxygen [2] was 2914 TEV and the “Total ORAC value” [2] was 8437 TEV. The half-life at 0.5 μM [3] was 31.9 min, the “CLint, hep” value ([3]; 0.5 μM) was 7.39 mL/min/g liver and the CLint scaled at 0.5 μM ([3]; read-out: Scaled CLint, hep) was 14.4 L/h/kg. The fraction unbound at 4 h, 2 μM ([4]; read-out: % Unbound Mean (% CV)) was 0.0306, the fraction unbound at 4 h, 2 μM ([4]; read-out: Mean % Bound (converted)) was 0.031 and the recovery at 4 h, 2 μM (Rat Plasma Proteins) was 104%. For the same molecule, the “% Unbound Replicate” value (Rat Plasma Proteins; 2 μM) was 1.37% and 1.44% and 6.36%, the “Mean % Stability at 4 hrs” value (Rat Plasma Proteins; 2 μM) was 94.4% and the “CLint, mic” value ([5]; rabbit liver microsomes, 0.5 μM) was 11.9 mL/min/g liver. It also gave a CLint scaled at 0.5 μM ([5]; rabbit liver microsomes, 0.5 μM, read-out: Scaled CLint, mic) of 22 L/h/kg and a half-life at 0.5 μM ([5]; rabbit, microsomes) of 6.1 min.

From patent publication US20220017468A1, “ISOQUINOLINE COMPOUNDS AND THEIR USE IN TREATING AhR IMBALANCE” (Dermavant Sciences GmbH, priority 2020, published 2022)
